The results in this text go back to PubChem BioAssay (NCI).

Among the test systems are 786-0 renal; ACHN renal; CAKI-1 renal; DU-145 prostate; MDA-N; NCI-H460 lung; RPMI-8226 leukemia; RXF 393 renal; SF-295 CNS; SK-MEL-28 melanoma; SR leukemia.
Common to all, as to assay: DTP human tumour cell line panel, 48 h

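Grown in 96-well plates, cells were treated for 48 hours with each compound at five concentrations. Insufficient inhibition: endpoint recorded as highest concentration tested. At the TGI there is no net growth.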

For `CC(=O)N1N=C(c2ccccc2)NC(=O)C1c1cc(C)c(O)c(C)c1` (configuration not stated), the TGI was 31.7 µM with 786-0 renal; 44 µM in the experiment on ACHN renal; greater than 100 µM in the experiment on CAKI-1 renal; 57.5 µM with DU-145 prostate; greater than 100 µM with MDA-N; greater than 100 µM in the experiment with NCI-H460 lung. Further, the TGI in the experiment on RPMI-8226 leukemia was greater than 100 µM; with RXF 393 renal, 31.2 µM; in the experiment on SF-295 CNS it was 43.8 µM; with SK-MEL-28 melanoma, greater than 100 µM; in the experiment with SR leukemia, greater than 100 µM.

Turning to `O=[N+]([O-])C1=Cc2c(O)ccc(O)c2C2OC=CC12` (configuration not stated), the TGI in the experiment with 786-0 renal was 32.6 µM; with ACHN renal, 29.1 µM; in the experiment with CAKI-1 renal it was 25.8 µM; with DU-145 prostate, greater than 54.6 µM; in the experiment with MDA-N, 11.4 µM; in the experiment with NCI-H460 lung it was 38.2 µM. Also, the TGI with RPMI-8226 leukemia was greater than 100 µM; in the experiment with RXF 393 renal, 29.4 µM; with SF-295 CNS it was 32.2 µM; in the experiment with SK-MEL-28 melanoma, greater than 74.5 µM; in the experiment with SR leukemia, greater than 74.5 µM.

As to `Cc1cc2c(cc1Cl)SSc1cc(Cl)c(C)cc1S(=O)(=O)Nc1nc(N)nn1C(O)n1nc(N)nc1NS2(=O)=O`, the TGI with 786-0 renal, in the experiment with ACHN renal, in the experiment on CAKI-1 renal, with DU-145 prostate, in the experiment on MDA-N and with NCI-H460 lung was greater than 10 µM throughout. The TGI with RPMI-8226 leukemia, in the experiment on RXF 393 renal, in the experiment on SF-295 CNS, with SK-MEL-28 melanoma and in the experiment on SR leukemia was greater than 10 µM in each case.

For `COc1ccc(C2c3cc4c(cc3OC(N3CCOCC3)C2C)OCO4)cc1OC` (configuration not stated), the TGI in the experiment with 786-0 renal was 53.8 µM; in the experiment with ACHN renal, greater than 100 µM; in the experiment with CAKI-1 renal it was 26.4 µM; with DU-145 prostate it was greater than 79.7 µM; in the experiment on MDA-N, 4.65 µM; in the experiment on NCI-H460 lung, greater than 63.8 µM. Further, the TGI with RPMI-8226 leukemia is greater than 100 µM; with RXF 393 renal it was 25.4 µM; in the experiment on SF-295 CNS, 32.8 µM; with SK-MEL-28 melanoma, greater than 100 µM; in the experiment on SR leukemia, greater than 100 µM.

For the compound `CCCCOC(=O)Nc1ccc(S(=O)(=O)Nc2c(Cl)cccc2Cl)cc1`, the TGI with 786-0 renal is 79.5 µM; in the experiment with ACHN renal, greater than 100 µM; in the experiment on CAKI-1 renal, 82.7 µM; with DU-145 prostate, greater than 100 µM; with MDA-N, greater than 100 µM; in the experiment with NCI-H460 lung, greater than 100 µM. Besides, the TGI with RPMI-8226 leukemia is 41.5 µM; with RXF 393 renal, greater than 100 µM; with SF-295 CNS it was greater than 100 µM; in the experiment with SK-MEL-28 melanoma it was 81.5 µM; in the experiment on SR leukemia it was 48.7 µM.

For `CCCCCCCCCCCCCOCCOCCOCCCCC(O)CCCCCCCCCC1=C[C@H](C)OC1=O` (some centres not stated), the TGI is 49.2 µM with 786-0 renal; greater than 100 µM in the experiment on ACHN renal; 44.4 µM in the experiment on CAKI-1 renal; 66.3 µM in the experiment on DU-145 prostate; 45.3 µM with MDA-N; greater than 100 µM in the experiment with NCI-H460 lung. For the same compound, the TGI in the experiment with RPMI-8226 leukemia worked out at 35.9 µM; with RXF 393 renal, 47.5 µM; in the experiment on SF-295 CNS it was 29.2 µM; in the experiment on SK-MEL-28 melanoma, 31.5 µM; with SR leukemia, 34.2 µM.

Consider `CCCCOc1ccc(/C=C/C2=[N+](CCO)CCO2)cc1`, for which the TGI with 786-0 renal, in the experiment with ACHN renal, in the experiment with CAKI-1 renal, in the experiment on DU-145 prostate, in the experiment on MDA-N and in the experiment on NCI-H460 lung was greater than 100 µM in each case. For the same compound, the TGI is 74.7 µM with RPMI-8226 leukemia; 63.3 µM with RXF 393 renal; greater than 100 µM with SF-295 CNS; greater than 100 µM in the experiment with SK-MEL-28 melanoma; 62.7 µM in the experiment with SR leukemia.

Take `CC(C)(C)c1ccc(O)c(C(O)c2ccccn2)c1` (configuration not stated): the TGI in the experiment with 786-0 renal, in the experiment on ACHN renal, in the experiment on CAKI-1 renal, with DU-145 prostate, with MDA-N and with NCI-H460 lung was greater than 100 µM throughout. Also, the TGI in the experiment with RPMI-8226 leukemia, with RXF 393 renal, with SF-295 CNS, with SK-MEL-28 melanoma and in the experiment on SR leukemia was greater than 100 µM in each case.

For `C[C@]12CCC(=O)C=C1CC[C@@H]1[C@@H]2CC[C@]2(C)C(=O)/C(=C/c3ccc([N+](=O)[O-])cc3)C[C@@H]12`, the TGI in the experiment with 786-0 renal was greater than 100 µM; in the experiment with ACHN renal, 19.9 µM; in the experiment with CAKI-1 renal, greater than 100 µM; with DU-145 prostate, greater than 100 µM; with MDA-N, greater than 100 µM; in the experiment on NCI-H460 lung, greater than 100 µM. Moreover, the TGI in the experiment with RPMI-8226 leukemia was greater than 100 µM; in the experiment with RXF 393 renal, 73.5 µM; with SF-295 CNS, greater than 100 µM; in the experiment with SK-MEL-28 melanoma, greater than 100 µM; in the experiment on SR leukemia it was greater than 100 µM.

For `CCOC(=O)N1CCC2(CC1)C[C@](Sc1ccccc1)(C(C)=O)[C@H](C)O2`, the TGI with 786-0 renal, with ACHN renal, in the experiment on CAKI-1 renal, in the experiment on DU-145 prostate, in the experiment on MDA-N and in the experiment on NCI-H460 lung was greater than 100 µM each time. Also, the TGI in the experiment with RPMI-8226 leukemia, in the experiment with RXF 393 renal, in the experiment on SF-295 CNS, in the experiment on SK-MEL-28 melanoma and in the experiment on SR leukemia was greater than 100 µM in each case.

In the case of `O=C(O)CSC1=NCCN1`, the TGI in the experiment with 786-0 renal, in the experiment on ACHN renal, in the experiment with CAKI-1 renal, in the experiment on DU-145 prostate, in the experiment on MDA-N and in the experiment with NCI-H460 lung was greater than 100 µM in each case. In addition, the TGI in the experiment on RPMI-8226 leukemia, in the experiment on RXF 393 renal, with SF-295 CNS, with SK-MEL-28 melanoma and with SR leukemia was greater than 100 µM each time.

Regarding `COc1ccc(Nc2nc3ccccc3nc2-c2cccs2)cc1OC`, the TGI with 786-0 renal, in the experiment on ACHN renal, in the experiment on CAKI-1 renal, in the experiment on DU-145 prostate, in the experiment with MDA-N and in the experiment on NCI-H460 lung was greater than 10 µM in each case. Further, the TGI with RPMI-8226 leukemia, with RXF 393 renal, in the experiment on SF-295 CNS, in the experiment with SK-MEL-28 melanoma and with SR leukemia was greater than 10 µM in each case.
